Laboratory results: patent publication US20110230476A1, “PI3 KINASE INHIBITORS AND USES THEREOF” (AVILA THERAPEUTICS, INC., priority 2009, published 2011)

Legend:
[1] = target: T1, PI3Kα (p110α/p85α) (Homo sapiens, UniProt P42336); test: HTRF assay, potency against active PI3Kα; assay type: biochemical; settings: HTRF; [ATP]=50 μM, [di-C8-PIP2]=10 μM; 30 min pre-incubation; read-out: PI3Kα Inhibition
T1 construct: purchased BPS Bioscience (San Diego, Calif.) or Millipore (Billerica, Mass.)
Method in brief: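 IC50 came from a variable-slope fit of % inhibition, calculated from the HTRF emission ratio relative to wells with and without enzyme. Reactions with the active enzyme complex ran 30-60 minutes at 25 °C after ATP addition before stop and detection reagents.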

[2] = target: T2, PI3Kγ (p120γ) (Homo sapiens, UniProt P48736); test: HTRF assay, potency against active PI3Kγ; assay type: biochemical; settings: [ATP]=50 μM, [di-C8-PIP2]=10 μM, 30 min pre-incubation, read-out: PI3Kγ Inhibition
T2 construct: purchased BPS Bioscience (San Diego, Calif.) or Millipore (Billerica, Mass.)
T2 sequence (P48736 whole entry): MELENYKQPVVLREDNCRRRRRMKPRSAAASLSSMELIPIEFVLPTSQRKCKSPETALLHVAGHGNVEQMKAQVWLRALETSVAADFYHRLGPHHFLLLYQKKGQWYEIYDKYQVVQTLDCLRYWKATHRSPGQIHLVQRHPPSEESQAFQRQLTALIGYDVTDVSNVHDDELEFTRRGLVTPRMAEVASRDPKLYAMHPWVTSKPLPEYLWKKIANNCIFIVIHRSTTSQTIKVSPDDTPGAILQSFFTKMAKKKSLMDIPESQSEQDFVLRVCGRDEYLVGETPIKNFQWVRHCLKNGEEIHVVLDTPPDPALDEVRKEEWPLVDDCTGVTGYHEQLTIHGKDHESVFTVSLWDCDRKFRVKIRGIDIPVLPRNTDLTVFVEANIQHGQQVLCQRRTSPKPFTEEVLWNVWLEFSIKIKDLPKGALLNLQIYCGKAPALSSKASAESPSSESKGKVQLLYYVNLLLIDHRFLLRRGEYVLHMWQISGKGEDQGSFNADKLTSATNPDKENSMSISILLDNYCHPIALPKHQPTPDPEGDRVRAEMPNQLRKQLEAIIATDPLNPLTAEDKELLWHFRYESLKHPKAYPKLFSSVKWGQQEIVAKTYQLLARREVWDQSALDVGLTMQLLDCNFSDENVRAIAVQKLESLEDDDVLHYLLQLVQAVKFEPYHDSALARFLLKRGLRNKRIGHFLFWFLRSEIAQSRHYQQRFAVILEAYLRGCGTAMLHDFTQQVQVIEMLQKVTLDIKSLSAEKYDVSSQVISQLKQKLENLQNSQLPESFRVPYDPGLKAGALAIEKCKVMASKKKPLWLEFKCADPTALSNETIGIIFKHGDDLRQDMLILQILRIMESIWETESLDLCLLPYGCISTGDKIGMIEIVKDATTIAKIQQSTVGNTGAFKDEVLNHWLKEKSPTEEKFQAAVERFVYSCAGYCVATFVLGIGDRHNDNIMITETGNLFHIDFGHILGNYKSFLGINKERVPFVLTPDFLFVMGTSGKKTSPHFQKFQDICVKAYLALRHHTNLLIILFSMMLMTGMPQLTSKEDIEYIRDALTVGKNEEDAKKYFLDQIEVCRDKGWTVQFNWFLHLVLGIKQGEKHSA
From the text: Homogeneous Time Resolved Fluorescence (HTRF) Assay Protocol for Potency Assessment Against the Active Forms of PI3Kα, PI3Kβ, and PI3Kγ
The protocol below describes an end-point, competition-binding HTRF assay used to measure inherent potency of test compounds against active PI3Kα (p110α/p85α), PI3Kβ (p110β/p85α), and PI3Kγ (p120γ) enzymes. The mechanics of the assay platform are best described by the vendor (Millipore, Billerica, Mass.) on their website at the following URL: www.millipore.com/coa/tech1/74jt4z.
Briefly, Stop solution (Stop A, #33-007 and Stop B, #33-009; 3:1 ratio) and Detection Mix (from DMC, #33-015 with DMA, #33-011 and DMB, #33-013; 18:1:1 ratio) were prepared as recommended by the manufacturer about 2 hrs prior to use. Additionally, 1× reaction buffer (from 4× buffer stock# 33-003), 1.4× stocks of PI3Kα, PI3Kβ, and PI3Kγ enzymes from BPS Bioscience (San Diego, Calif.) or Millipore (Billerica, Mass.) with di-C8-PIP2 lipid substrate (#33-005), and a 4×ATP solution (#A7699 Sigma/Aldrich; St. Louis, Mo.) were prepared in 1× reaction buffer. 15 μL of PI3K enzymes and lipid substrate mix were pre-incubated in a Corning (#3573) 384-well, black, non-treated microtiter plate (Corning, N.Y.) for 30 min at 25° C. with a 0.5 μL volume of 50% DMSO and serially diluted compounds prepared in 50% DMSO. Lipid kinase reactions were started with the addition of 5 μL of ATP solution, mixed for 15 sec on a rotary plate shaker and incubated for 30-60 minutes at 25° C. Next, reactions were stopped with a 5 μL addition of Stop solution immediately followed by a 5 μL volume of Detection Mix. Stopped reactions were equilibrated for 1 and 18 hrs at room temperature and read in a Synergy^4 plate reader from BioTek (Winooski, Vt.) at λex330-80/λem620-35 and λem665-7.5. At the conclusion of each assay, the HTRF ratio from fluorescence emission values for each well was calculated and % Inhibition determined from averaged controls wells (+/−PI3K enzyme). % Inhibition values for each compound were then plotted against inhibitor concentration to estimate IC50 from log [Inhibitor] vs Response, Variable Slope model in GraphPad Prism from GraphPad Software (San Diego, Calif.).
[Reagent] used in optimized protocol: • [p110α/p85α]=0.5-1.5 nM, [ATP]=50 μM, [di-C8—PIP2]=10 μM • [p110β/p85α]=0.75 nM, [ATP]=50 μM, [di-C8—PIP2]=10 μM • [p120γ]=2-2.5 nM, [ATP]=50 μM, [di-C8—PIP2]=10 μM • (ATP KMapp for both enzymes was estimated to be 40-70 μM)

[3] = tested on: Phospho-Akt(Ser473); test: Dose response in SKOV3 cells as determined by in-cell Western; assay type: cell-based; settings: Homo sapiens, SK-OV-3; SKOV3 cells, 1 hr; read-out: pAKT Inhibition in cell Western
Method: Dose Response in SKOV3 Cells as Determined by in-Cell Western
Twenty four hours later the media was removed and replaced with 100 ul media containing test compound or control compound and cells were returned to the incubator for 1 hr. At the end of the hour, the media was removed and the cells were washed once with PBS, then fixed for 20 minutes at room temperature in 4% formaldehyde in PBS. The formaldehyde was removed and cells were washed 5 times for 5 minutes with 100 ul of Permeabilization Buffer (PBS+0.1% Triton X-100) at room temperature with gentle shaking. The last wash was removed and replaced with 150 ul of Odyssey Blocking Buffer (Li-Cor, Lincoln, Nebr.) and incubated for 90 minutes at room temperature with gentle shaking.
The Blocking Buffer was then replaced with 50 ul of primary antibody mix (rabbit anti-Phospho-Akt(Ser473) at 1:100 (Cell Signaling Technology, Boston, Mass.) and mouse anti-tubulin at 1:5000 (Sigma Aldrich, St. Louis, Mo.) diluted in Odyssey Blocking Buffer) and incubated overnight at room temperature with gentle shaking.
The next morning, the antibody mix was removed and the wells were washed 5 times for 5 minutes with PBS+0.1% Tween-20. The last wash was replaced with 50 ul of secondary antibody mix (goat anti-rabbit-IRDye-680 and goat anti-mouse-IRDye-800 (Li-Cor), both diluted 1:1000 in Odyssey Blocking Buffer+0.2% Tween-20) and incubated for 1 hour at room temperature with gentle shaking. The antibody mix was removed and the wells were washed 5 times for 5 minutes in PBS+0.1% Tween-20, then 1 time with ddH2O.
The plates were scanned on an Odyssey machine (Li-Cor) with a 3 mm focus offset at an intensity of 8 in both channels and the data was analyzed using the Odyssey software.

T1 sequence (P42336 whole entry): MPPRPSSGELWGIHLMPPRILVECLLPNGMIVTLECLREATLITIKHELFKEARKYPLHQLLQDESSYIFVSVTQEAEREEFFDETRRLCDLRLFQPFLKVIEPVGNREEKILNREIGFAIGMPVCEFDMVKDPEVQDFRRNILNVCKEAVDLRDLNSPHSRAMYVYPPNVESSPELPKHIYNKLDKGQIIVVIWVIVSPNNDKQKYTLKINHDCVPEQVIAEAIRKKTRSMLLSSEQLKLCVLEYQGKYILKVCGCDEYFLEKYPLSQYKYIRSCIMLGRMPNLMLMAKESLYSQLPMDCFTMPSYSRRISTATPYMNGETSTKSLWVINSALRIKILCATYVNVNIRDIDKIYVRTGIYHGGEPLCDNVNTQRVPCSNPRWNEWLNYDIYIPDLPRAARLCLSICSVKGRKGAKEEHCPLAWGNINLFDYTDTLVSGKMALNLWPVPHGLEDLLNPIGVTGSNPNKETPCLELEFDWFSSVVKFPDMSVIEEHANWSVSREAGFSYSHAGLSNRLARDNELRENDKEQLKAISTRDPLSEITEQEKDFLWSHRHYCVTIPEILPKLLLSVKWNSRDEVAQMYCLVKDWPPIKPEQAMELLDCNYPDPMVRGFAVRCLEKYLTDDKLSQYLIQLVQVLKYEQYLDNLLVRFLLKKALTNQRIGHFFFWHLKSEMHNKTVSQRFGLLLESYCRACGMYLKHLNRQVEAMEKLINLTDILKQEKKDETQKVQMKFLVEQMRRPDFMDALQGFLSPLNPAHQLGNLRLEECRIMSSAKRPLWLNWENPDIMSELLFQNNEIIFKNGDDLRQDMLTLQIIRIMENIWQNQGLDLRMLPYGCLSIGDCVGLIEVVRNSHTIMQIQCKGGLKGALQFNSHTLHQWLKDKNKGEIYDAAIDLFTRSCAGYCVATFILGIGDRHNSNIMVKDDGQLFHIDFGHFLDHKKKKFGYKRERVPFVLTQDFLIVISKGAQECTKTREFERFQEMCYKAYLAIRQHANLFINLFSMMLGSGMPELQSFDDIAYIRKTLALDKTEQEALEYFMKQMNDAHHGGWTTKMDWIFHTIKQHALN
T1 sequence (P27986 whole entry partner): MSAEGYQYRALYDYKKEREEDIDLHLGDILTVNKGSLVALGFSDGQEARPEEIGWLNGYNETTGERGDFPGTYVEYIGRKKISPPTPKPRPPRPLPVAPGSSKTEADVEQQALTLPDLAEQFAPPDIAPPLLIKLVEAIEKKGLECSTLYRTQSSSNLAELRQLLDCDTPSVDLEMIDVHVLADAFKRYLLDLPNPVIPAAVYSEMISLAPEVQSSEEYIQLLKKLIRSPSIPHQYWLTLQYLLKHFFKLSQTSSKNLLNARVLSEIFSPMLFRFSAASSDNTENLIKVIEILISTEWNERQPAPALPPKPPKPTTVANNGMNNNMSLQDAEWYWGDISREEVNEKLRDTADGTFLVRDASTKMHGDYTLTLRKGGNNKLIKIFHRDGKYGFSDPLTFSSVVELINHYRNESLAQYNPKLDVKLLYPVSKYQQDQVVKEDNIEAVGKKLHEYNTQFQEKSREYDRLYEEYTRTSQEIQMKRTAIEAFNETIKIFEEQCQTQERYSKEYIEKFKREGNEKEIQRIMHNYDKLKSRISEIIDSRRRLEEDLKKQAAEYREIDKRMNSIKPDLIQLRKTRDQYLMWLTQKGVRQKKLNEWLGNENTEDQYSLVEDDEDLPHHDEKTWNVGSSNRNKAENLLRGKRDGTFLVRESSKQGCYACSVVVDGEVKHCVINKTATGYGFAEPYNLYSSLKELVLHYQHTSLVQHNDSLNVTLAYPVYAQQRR

| SMILES | IC50 [1] [nM] | IC50 [2] [nM] | EC50 [3] [nM] |
| --- | --- | --- | --- |
| C=CS(=O)(=O)N1CCN(Cc2cc3nc(-c4cccc5[nH]ncc45)nc(N4CCOCC4)c3s2)CC1 [II-a-1] | 100 to 1000 | 100 to 1000 | – |
| C=CC(=O)NCCS(=O)(=O)N1CCN(Cc2cc3nc(-c4cccc5[nH]ncc45)nc(N4CCOCC4)c3s2)CC1 [II-a-13, N-(2-(4-((2-(1H-indazol-4-yl)-4-morpholinothieno[3,2-d]pyrimidin-6-yl)methyl)piperazin-1-ylsulfonyl)ethyl)acrylamide] | 10 to 100 | > 1000 | – |
| C=CC(=O)N1CCN(Cc2cc3nc(-c4ccccc4)nc(N4CCOCC4)c3s2)CC1 [II-a-17, 1-(4-((4-morpholino-2-phenylthieno[3,2-d]pyrimidin-6-yl)methyl)piperazin-1-yl)prop-2-en-1-one] | > 1000 | > 1000 | – |
| C=CC(=O)NCc1ccc(C(=O)N2CCN(Cc3cc4nc(-c5cccc6[nH]ncc56)nc(N5CCOCC5)c4s3)CC2)cc1 [II-a-21, N-(4-(4-((2-(1H-indazol-4-yl)-4-morpholinothieno[3,2-d]pyrimidin-6-yl)methyl)piperazine-1-carbonyl)benzyl)acrylamide] | > 1000 | > 1000 | – |
| C/C=C/C(=O)CCC(=O)NCCS(=O)(=O)N1CCN(Cc2cc3nc(-c4cccc5[nH]ncc45)nc(N4CCOCC4)c3s2)CC1 [II-a-23, (E)-N-(2-(4-((2-(1H-indazol-4-yl)-4-morpholinothieno[3,2-d]pyrimidin-6-yl)methyl)piperazin-1-ylsulfonyl)ethyl)-4-oxohept-5-enamide] | 100 to 1000 | > 1000 | – |
| CN(C/C=C/C(=O)CCC(=O)N1CCN(Cc2cc3nc(-c4cccc5[nH]ncc45)nc(N4CCOCC4)c3s2)CC1)C(=O)OC(C)(C)C [II-a-24] | 10 to 100 | > 1000 | – |
| C=CC(=O)N1Cc2ccc(-c3cc4nc(-c5cccc(O)c5)nc(N5CCOCC5)c4s3)cc2C1 [II-a-27, 1-(5-(2-(3-hydroxyphenyl)-4-morpholinothieno[3,2-d]pyrimidin-6-yl)isoindolin-2-yl)prop-2-en-1-one] | 100 to 1000 | > 1000 | – |
| C=CC(=O)N1CCN(C(=O)C2CCN(Cc3cc4nc(-c5cccc6[nH]ncc56)nc(N5CCOCC5)c4s3)CC2)CC1 [II-a-31, 1-(4-(1-((2-(1H-indazol-4-yl)-4-morpholinothieno[3,2-d]pyrimidin-6-yl)methyl)piperidine-4-carbonyl)piperazin-1-yl)prop-2-en-1-one] | 100 to 1000 | > 1000 | – |
| C=CC(=O)Nc1ccc(C(=O)N2CCC(n3ncc4c(N5CCOCC5)nc(-c5cnc(N)nc5)nc43)CC2)cc1 [VII-12, N-(4-(4-(6-(2-aminopyrimidin-5-yl)-4-morpholino-1H-pyrazolo[3,4-d]pyrimidin-1-yl)piperidine-1-carbonyl)phenyl)acrylamide] | 100 to 1000 | – | 10 to 100 |
| C/C=C/C(=O)CCCC(=O)Nc1ccc(S(=O)(=O)Nc2cc(-c3ccc4nccc(-c5ccncc5)c4c3)cnc2OC)cc1 [X-1, (E)-N-(4-(N-(2-methoxy-5-(4-(pyridin-4-yl)quinolin-6-yl)pyridin-3-yl)sulfamoyl)phenyl)-5-oxooct-6-enamide] | 100 to 1000 | – | ≤ 10 |
| COc1ccc(-c2nn(C3CCN(C(=O)CCC(=O)/C=C/c4ccccc4)CC3)c3ncnc(N)c23)cc1OC [XI-3, (E)-1-(4-(4-amino-3-(3,4-dimethoxyphenyl)-1H-pyrazolo[3,4-d]pyrimidin-1-yl)piperidin-1-yl)-6-phenylhex-5-ene-1,4-dione] | 100 to 1000 | – | ≥ 1000 |
| C=CC(=O)Nc1ccc(C#Cc2cc(-c3cnc(N)nc3)nc(N3CCOCC3)c2)cc1 [XII-4, N-(4-((2-(2-aminopyrimidin-5-yl)-6-morpholinopyridin-4-yl)ethynyl)phenyl)acrylamide] | 10 to 100 | – | 10 to 100 |
| C=CC(=O)Nc1ccc(OCc2cc(-c3cnc(N)nc3)nc(N3CCOCC3)c2)cc1 [XII-5, N-(4-((2-(2-aminopyrimidin-5-yl)-6-morpholinopyridin-4-yl)methoxy)phenyl)acrylamide] | 100 to 1000 | – | 10 to 100 |
| CC(C)=CC(=O)CCC(=O)N1CCC2(CC1)CN(c1cc(-c3cnc(N)nc3)nc(N3CCOCC3)c1)C2 [XII-39, 1-(2-(2-(2-aminopyrimidin-5-yl)-6-morpholinopyridin-4-yl)-2,7-diazaspiro[3.5]nonan-7-yl)-6-methylhept-5-ene-1,4-dione] | 10 to 100 | – | 100 to 1000 |
| CC(C)=CC(=O)CCCC(=O)N1CCC2(CC1)CN(c1cc(-c3cnc(N)nc3)nc(N3CCOCC3)c1)C2 [XII-41, 1-(2-(2-(2-aminopyrimidin-5-yl)-6-morpholinopyridin-4-yl)-2,7-diazaspiro[3.5]nonan-7-yl)-7-methyloct-6-ene-1,5-dione] | > 1000 | – | 100 to 1000 |
| C=CC(=O)Nc1ccc(C(=O)N2CC=C(c3cc(-c4cnc(N)nc4)nc(N4CCOCC4)c3)CC2)cc1 [XII-46, N-(4-(4-(2-(2-aminopyrimidin-5-yl)-6-morpholinopyridin-4-yl)-1,2,3,6-tetrahydropyridine-1-carbonyl)phenyl)acrylamide] | 100 to 1000 | – | 100 to 1000 |
| C=CC(=O)Nc1cccc(C(=O)N2CC=C(c3cc(-c4cnc(N)nc4)nc(N4CCOCC4)c3)CC2)c1 [XII-47, N-(3-(4-(2-(2-aminopyrimidin-5-yl)-6-morpholinopyridin-4-yl)-1,2,3,6-tetrahydropyridine-1-carbonyl)phenyl)acrylamide] | 100 to 1000 | – | 100 to 1000 |
| C=CC(=O)Nc1cccc(N2CC=C(c3cc(-c4cnc(N)nc4)nc(N4CCOCC4)c3)CC2)c1 [XII-48] | 100 to 1000 | – | 100 to 1000 |
| C=C(C)C(=O)c1ccc(C(=O)N2CC=C(c3cc(-c4cnc(N)nc4)nc(N4CCOCC4)c3)CC2)cc1 [XII-49, 1-(4-(4-(2-(2-aminopyrimidin-5-yl)-6-morpholinopyridin-4-yl)-1,2,3,6-tetrahydropyridine-1-carbonyl)phenyl)-2-methylprop-2-en-1-one] | 10 to 100 | – | 100 to 1000 |
| CC(C)=CC(=O)c1ccc(C(=O)N2CC=C(c3cc(-c4cnc(N)nc4)nc(N4CCOCC4)c3)CC2)cc1 [XII-50, 1-(4-(4-(2-(2-aminopyrimidin-5-yl)-6-morpholinopyridin-4-yl)-1,2,3,6-tetrahydropyridine-1-carbonyl)phenyl)-3-methylbut-2-en-1-one] | 100 to 1000 | – | 100 to 1000 |
